Experimental data reported in patent US20040034082A1, “Utilization of pyrazoline derivatives in the preparation of a medicament for the prevention and/or treatment of proliferative cell diseases” (priority 2001, published 2004).

Compound	melting point [°C]
Cc1ccc(C2CC(C(F)(F)F)=NN2c2ccc(S(N)(=O)=O)cc2)cc1 (centres unmarked) [Example 1]	140 to 143
CC1(c2ccccc2)CC(C(F)(F)F)=NN1c1ccc(S(N)(=O)=O)cc1 (centres unmarked) [Example 2]	60 to 66
Cc1ccc(N2N=C(C(F)(F)F)CC2c2ccc(S(C)(=O)=O)cc2)cc1 (centres unmarked) [Example 4]	140 to 143
NS(=O)(=O)c1ccc(N2N=C(C(F)(F)F)CC2c2ccccc2)cc1 (centres unmarked) [Example 5]	156 to 157
CS(=O)(=O)c1ccc(N2N=C(C(F)(F)F)CC2c2ccccc2)cc1 (centres unmarked) [Example 6]	137 to 140
Cc1ccc(C2CC(C(F)(F)F)=NN2c2ccc(S(C)(=O)=O)cc2)cc1 (centres unmarked) [Example 7]	115 to 119
NS(=O)(=O)c1ccc(N2N=C(C(F)(F)F)CC2c2ccc(F)cc2)cc1 (centres unmarked) [Example 8]	154 to 156
CS(=O)(=O)c1ccc(N2N=C(C(F)(F)F)CC2c2ccc(F)cc2)cc1 (centres unmarked) [Example 9]	121 to 122
NS(=O)(=O)c1ccc(N2N=C(C(F)(F)F)CC2c2ccc(F)c(F)c2)cc1 (centres unmarked) [Example 11]	153 to 155
CS(=O)(=O)c1ccc(N2N=C(C(F)(F)F)CC2c2ccc(Cl)cc2Cl)cc1 (centres unmarked) [Example 12]	198 to 200
NS(=O)(=O)c1ccc(N2N=C(C(F)(F)F)CC2c2ccc(Cl)cc2Cl)cc1 (centres unmarked) [Example 13]	143 to 145
Cc1ccccc1C1CC(C(F)(F)F)=NN1c1ccc(S(N)(=O)=O)cc1 (centres unmarked) [Example 14]	124 to 126
Cc1cccc(C2CC(C(F)(F)F)=NN2c2ccc(S(N)(=O)=O)cc2)c1 (centres unmarked) [Example 15]	125 to 128
NS(=O)(=O)c1ccc(N2N=C(C(F)(F)F)CC2c2ccccc2F)cc1 (centres unmarked) [Example 16]	166 to 168
CS(=O)(=O)c1ccc(N2N=C(C(F)(F)F)CC2c2ccccc2F)cc1 (centres unmarked) [Example 17]	117 to 121
NS(=O)(=O)c1ccc(N2N=C(C(F)(F)F)CC2c2cccc(F)c2)cc1 (centres unmarked) [Example 18]	132 to 133
CS(=O)(=O)c1ccc(N2N=C(C(F)(F)F)CC2c2cccc(F)c2)cc1 (centres unmarked) [Example 19]	149 to 151

Compound	melting point [°C]
COc1ccc(C2CC(C(F)(F)F)=NN2c2ccc(S(N)(=O)=O)cc2)cc1 (centres unmarked) [Example 20]	125 to 128
NS(=O)(=O)c1ccc(N2N=C(C(F)(F)F)CC2c2ccc(F)c(Cl)c2)cc1 (centres unmarked) [Example 21]	171 to 173
NS(=O)(=O)c1ccc(N2N=C(C(F)(F)F)CC2c2ccc(OC(F)(F)F)cc2)cc1 (centres unmarked) [Example 22]	134 to 137
NS(=O)(=O)c1ccc(N2N=C(C(F)(F)F)CC2c2cccc(F)c2F)cc1 (centres unmarked) [Example 23]	152 to 154
Cc1ccc(C2CC(C(F)(F)F)=NN2c2ccc(S(N)(=O)=O)cc2)c(C)c1 (centres unmarked) [Example 24]	158 to 160
CS(=O)(=O)c1ccc(N2N=C(C(F)(F)F)CC2c2ccc(F)c(F)c2)cc1 (centres unmarked) [Example 25]	132 to 135
CC1=NN(c2ccc(S(N)(=O)=O)cc2)C(c2ccc(F)cc2)C1 (centres unmarked) [Example 26]	206 to 208
CC1=NN(c2ccc(S(C)(=O)=O)cc2)C(c2ccc(F)cc2)C1 (centres unmarked) [Example 27]	120 to 123
CC1=NN(c2ccc(S(N)(=O)=O)cc2)C(c2ccc(C)cc2)C1 (centres unmarked) [Example 28]	195 to 197
CC1=NN(c2ccc(S(C)(=O)=O)cc2)C(c2ccc(C)cc2)C1 (centres unmarked) [Example 29]	113 to 117
CC1=NN(c2ccc(S(N)(=O)=O)cc2)C(c2ccc(C(F)(F)F)cc2)C1 (centres unmarked) [Example 30]	190 to 194
NS(=O)(=O)c1ccc(N2N=CCC2c2ccccc2)cc1 (centres unmarked) [Example 31]	206 to 208
CS(=O)(=O)c1ccc(N2N=CCC2c2ccccc2)cc1 (centres unmarked) [Example 32]	197 to 202
CC1=NN(c2ccc(S(C)(=O)=O)cc2)C(c2ccc(C(F)(F)F)cc2)C1 (centres unmarked) [Example 33]	136 to 138
Cc1ccc(C2CC(C(=O)O)=NN2c2ccc(S(N)(=O)=O)cc2)cc1 (centres unmarked) [Example 34]	172 to 176
NS(=O)(=O)c1ccc(N2N=C(C(=O)O)CC2c2ccccc2)cc1 (centres unmarked) [Example 35]	157 to 164
Cc1ccc(C2CC(C(=O)O)=NN2c2ccc(S(C)(=O)=O)cc2)cc1 (centres unmarked) [Example 36]	202 to 205

Further lines, results first:

melting point [°C]	Compound
192 to 197	COC(=O)C1=NN(c2ccc(S(N)(=O)=O)cc2)C(c2ccc(C)cc2)C1 (centres unmarked) [Example 37]
84 to 90	COC(=O)C1=NN(c2ccc(S(N)(=O)=O)cc2)C(c2ccccc2)C1 (centres unmarked) [Example 38]
155 to 160	COC(=O)C1=NN(c2ccc(S(C)(=O)=O)cc2)C(c2ccc(C)cc2)C1 (centres unmarked) [Example 39]
200 to 205	NC(=O)C1=NN(c2ccc(S(N)(=O)=O)cc2)C(c2ccccc2)C1 (centres unmarked) [Example 40]
210 to 215	Cc1ccc(C2CC(C(N)=O)=NN2c2ccc(S(N)(=O)=O)cc2)cc1 (centres unmarked) [Example 41]
128 to 132	Cc1ccc(C2CC(C(N)=O)=NN2c2ccc(S(C)(=O)=O)cc2)cc1 (centres unmarked) [Example 42]
162 to 164	Cc1ccc(C2CC(C#N)=NN2c2ccc(S(C)(=O)=O)cc2)cc1 (centres unmarked) [Example 43]
152 to 155	Cc1ccc(C2CC(C(F)(F)F)=NN2c2ccc(S(N)(=O)=O)cc2)cc1C (centres unmarked) [Example 44]
170 to 175	COc1ccc(C2CC(C(F)(F)F)=NN2c2ccc(S(N)(=O)=O)cc2)cc1C (centres unmarked) [Example 45]
108 to 114	COc1ccc(C2CC(C(F)(F)F)=NN2c2ccc(S(N)(=O)=O)cc2)cc1F (centres unmarked) [Example 46]
157 to 159	COc1ccc(C2CC(C(F)(F)F)=NN2c2ccc(S(N)(=O)=O)cc2)c(F)c1 (centres unmarked) [Example 47]
121 to 126	COc1ccc(C2CC(C(F)(F)F)=NN2c2ccc(S(N)(=O)=O)cc2)c(OC)c1 (centres unmarked) [Example 48]
179 to 182	COc1cc(F)ccc1C1CC(C(F)(F)F)=NN1c1ccc(S(N)(=O)=O)cc1 (centres unmarked) [Example 49]
181 to 183	Cc1ccc(C2CC(C(F)F)=NN2c2ccc(S(N)(=O)=O)cc2)c(C)c1 (centres unmarked) [Example 50]
159 to 161	NS(=O)(=O)c1ccc(N2N=C(C(F)(F)F)CC2c2ccc(F)c(F)c2F)cc1 (centres unmarked) [Example 51]
167 to 169	NS(=O)(=O)c1ccc(N2N=C(C(F)(F)F)CC2c2ccc(F)cc2Cl)cc1 (centres unmarked) [Example 52]
170 to 173	NS(=O)(=O)c1ccc(N2N=C(C(F)(F)F)CC2c2ccc(C(F)(F)F)cc2F)cc1 (centres unmarked) [Example 53]
212 to 214	NS(=O)(=O)c1ccc(N2N=C(C(F)(F)F)CC2c2ccc(C(F)(F)F)cc2C(F)(F)F)cc1 (centres unmarked) [Example 54]
193 to 195	Cc1c(F)cccc1C1CC(C(F)(F)F)=NN1c1ccc(S(N)(=O)=O)cc1 (centres unmarked) [Example 55]

melting point [°C]	Compound
148 to 150	COc1ccc(C2CC(C(F)(F)F)=NN2c2ccc(S(N)(=O)=O)cc2)c(C)c1 (centres unmarked) [Example 56]
157 to 160	NS(=O)(=O)c1ccc(N2N=C(C(F)F)CC2c2ccc(F)cc2F)cc1 (centres unmarked) [Example 57]
174 to 177	NS(=O)(=O)c1ccc(N2N=C(C(F)(F)F)CC2c2ccc(F)cc2C(F)(F)F)cc1 (centres unmarked) [Example 58]
157 to 159	NS(=O)(=O)c1ccc(N2N=C(C(F)(F)F)CC2c2ccccc2Cl)cc1 (centres unmarked) [Example 60]
180 to 185	NS(=O)(=O)c1ccc(N2N=C(C(F)(F)F)CC2c2ccc(Cl)cc2F)cc1 (centres unmarked) [Example 61]
154 to 160	Cc1cc(F)ccc1C1CC(C(F)(F)F)=NN1c1ccc(S(N)(=O)=O)cc1 (centres unmarked) [Example 62]
166 to 167	Cc1ccc(C2CC(C(F)(F)F)=NN2c2ccc(S(N)(=O)=O)cc2)c(F)c1 (centres unmarked) [Example 63]
117 to 121	CS(=O)(=O)c1ccc(C2CC(C(F)(F)F)=NN2c2ccc(Cl)cc2)cc1 (centres unmarked) [Example 65]
114 to 115	CS(=O)(=O)c1ccc(C2CC(C(F)(F)F)=NN2c2ccccc2)cc1 (centres unmarked) [Example 66]
98 to 99	CS(=O)(=O)c1ccc(C2CC(C(F)(F)F)=NN2c2ccccc2F)cc1 (centres unmarked) [Example 67]
104 to 108	Cc1cc(Cl)ccc1N1N=C(C(F)(F)F)CC1c1ccc(S(C)(=O)=O)cc1 (centres unmarked) [Example 68]
116 to 117	CS(=O)(=O)c1ccc(C2CC(C(F)(F)F)=NN2c2cccc(F)c2)cc1 (centres unmarked) [Example 69]
114 to 116	Cc1cccc(N2N=C(C(F)(F)F)CC2c2ccc(S(C)(=O)=O)cc2)c1 (centres unmarked) [Example 70]
132 to 133	Cc1ccc(N2N=C(C(F)(F)F)CC2c2ccc(S(C)(=O)=O)cc2)c(C)c1 (centres unmarked) [Example 71]
103 to 106	CS(=O)(=O)c1ccc(C2CC(C(F)(F)F)=NN2c2ccc(Cl)cc2Cl)cc1 (centres unmarked) [Example 74]
138 to 140	NS(=O)(=O)c1ccc(C2CC(C(F)(F)F)=NN2c2ccc(F)cc2)cc1 (centres unmarked) [Example 76]
132 to 135	CC1=NN(c2ccccc2)C(c2ccc(S(C)(=O)=O)cc2)C1 (centres unmarked) [Example 77]
155 to 160	CS(=O)(=O)c1ccc(C2CC=NN2c2ccc(F)cc2)cc1 (centres unmarked) [Example 78]
